Earlier results as cited in patent EP0529484A1, “Antitussive and expectorant composition” (ND NEW DRUG DEVELOPMENT INSTITUTE INC., priority 1991, dated 1993).

Tests used:
[1] = tested on: rat
[2] = tested on: mouse

For `C[N+]1(CCF)[C@@H]2CC[C@H]1C[C@@H](OC(=O)C(O)(c1ccccc1)c1ccccc1)C2` (stereo partly drawn) [flutropium bromide, 8(r)-8-(2-fluoroethyl)-3α-hydroxy-1αH,5αH-tropanium bromide, benzilate hydrate], which “LD₅₀ through oral administration” value [1] is on record?
The value was 2,900 mg/kg.

And the “LD₅₀ through oral administration” value [2]?
Its value is 930 mg/kg.
